Converted amounts (≈) assume the structure as drawn.
Experiments:
Assay type in all cases: cell-based
[1] = system: ATCC25922 strain (Escherichia coli); test: Broth microdilution, antibacterial activity of the compound used alone; details: for MIC: read-out: Antibacterial activity of the compound of Formula I, ATCC25922
From the text: (§1) The broth microdilution method was used to test the antibacterial effects of the compounds of the present invention against various Gram-negative bacterial strains when used alone.

[2] = system: ATCC9027 strain (Pseudomonas aeruginosa); test: as above; details: for MIC: read-out: Antibacterial activity of the compound of Formula I, ATCC9027
From the text: as §1

[3] = system: ATCC13883 strain (Klebsiella pneumoniae); test: as above; details: for MIC: read-out: Antibacterial activity of the compound of Formula I, ATCC13883
From the text: as §1

[4] = system: ATCC19606 strain (Acinetobacter baumannii); test: as above; details: for MIC: read-out: Antibacterial activity of the compound of Formula I, ATCC19606
From the text: as §1

[5] = system: ATCC25922 strain (Escherichia coli); test: Checkerboard antibacterial synergistic activity test with polymyxin E (FIC); parameters: key: FIC≤0.5 synergy; 0.5–1 additive; 1–2 indifferent; ≥2 antagonism; details: combined with polymyxin E
Experimental: (§2) Polymyxin E was diluted in sterile MH broth medium to concentrations of 16, 8, 4, 2, 1, 0.5, 0.25, 0.125, 0.0625, 0.031, and 0.015 μg/ml, and the drug to be tested was diluted to concentrations of 256, 128, 64, 32, 16, 8, and 4 μg/ml. According to the checkerboard method, combinations of the drug to be tested and polymyxin at different concentrations in ascending order were placed into a 96-well plate, and corresponding blank control groups were set up. 50 μl of the drug solution was added to each well, then 100 μl of bacterial liquid was added, and incubated in a 37° C. incubator for 16 hours. […] Calculation and judgment criteria:
(§3) Fractional Inhibitory Concentration (FIC) is calculated as follows: […]
(§4) Judgment criteria: FIC≤0.5: synergistic effect; 0.5<FIC<1: additive effect; 1<FIC<2: indifferent effect; FIC≥2: antagonistic effect.
(§5) In the table: ATCC19606 strain is Acinetobacter baumannii, ATCC25922 strain is Escherichia coli, ATCC13883 strain is Klebsiella pneumoniae, ATCC9027 strain is Pseudomonas aeruginosa. All four strains were purchased from ATCC.

[6] = system: ATCC9027 strain (Pseudomonas aeruginosa); test: as above; parameters: key: FIC≤0.5 synergy; 0.5–1 additive; 1–2 indifferent; ≥2 antagonism; details: combined with polymyxin E
Experimental: as §2, §3, §4, §5

[7] = system: ATCC13883 strain (Klebsiella pneumoniae); test: as above; parameters: key: FIC≤0.5 synergy; 0.5–1 additive; 1–2 indifferent; ≥2 antagonism; details: combined with polymyxin E
Experimental: as §2, §3, §4, §5

[8] = system: ATCC19606 strain (Acinetobacter baumannii); test: as above; parameters: key: FIC≤0.5 synergy; 0.5–1 additive; 1–2 indifferent; ≥2 antagonism; details: combined with polymyxin E
Experimental: as §2, §3, §4, §5

| SMILES | MIC [1] [µg/mL] | MIC [2] [µg/mL] | MIC [3] [µg/mL] | MIC [4] [µg/mL] | Synergistic activity (FIC value) ATCC25922 [5] | Synergistic activity (FIC value) ATCC9027 [6] | Synergistic activity (FIC value) ATCC13883 [7] | Synergistic activity (FIC value) ATCC19606 [8] | Antibacterial activity of the compound of Formula I, ATCC25922 [1] [µg/mL] | Antibacterial activity of the compound of Formula I, ATCC9027 [2] [µg/mL] | Antibacterial activity of the compound of Formula I, ATCC13883 [3] [µg/mL] | Antibacterial activity of the compound of Formula I, ATCC19606 [4] [µg/mL] |
| --- | --- | --- | --- | --- | --- | --- | --- | --- | --- | --- | --- | --- |
| CS(=O)(=O)c1ccc(Oc2cccc(-c3csc(N=C(N)N)n3)c2)cc1 [Compound I-106] | 256 (≈ 659 µM) | 256 (≈ 659 µM) | 256 (≈ 659 µM) | 256 (≈ 659 µM) | 0.53 | 1.25 | 1.25 | 1.25 | – | – | – | – |
| COc1cccc(-c2csc(N=C(N)N)n2)c1 [Compound I-5] | – | – | – | – | 1.25 | 1.25 | 1.25 | 1.25 | 256 | 256 | 256 | 256 |
| NC(N)=Nc1nc(-c2ccccc2Oc2ccccc2Cl)cs1 [Compound I-84] | – | – | – | – | 0.27 | 0.04 | 0.09 | 0.63 | 256 | 256 | 256 | 256 |
| NC(N)=Nc1nc(-c2cc(Cl)cc3c2Cc2ccc(Cl)cc2-3)cs1 [Compound I-116] | – | – | – | – | 0.5 | 1.25 | 0.63 | 0.25 | 256 | 256 | 256 | 256 |
| Cc1sc(N=C(N)N)nc1-c1cccc(S(C)(=O)=O)c1-c1ccccn1 [Compound I-76] | – | – | – | – | 0.5 | 0.56 | 0.63 | 0.75 | 256 | 256 | 256 | 256 |
| CC(C)=CCOc1cc(OCC=C(C)C)cc(-c2nc(N=C(N)N)[nH]c2C)c1 [Compound I-49] | – | – | – | – | 1.25 | 0.53 | 0.53 | 0.25 | 256 | 256 | 256 | 256 |
| NC(N)=Nc1nc(-c2cccc(Oc3ccc(I)cc3I)c2)cs1 [Compound I-97] | – | – | – | – | 0.2 | 0.28 | 0.13 | 0.04 | 256 | 256 | 256 | 256 |
| NC(N)=Nc1nc(-c2cc3ccccc3o2)cs1 [Compound I-112] | 256 (≈ 991 µM) | 256 (≈ 991 µM) | 256 (≈ 991 µM) | 256 (≈ 991 µM) | 1.25 | 0.52 | 1.25 | 0.51 | – | – | – | – |
| CCc1sc(N=C2NCCCN2)nc1-c1c(SC)cc2ccc(C)cn12 [Compound I-193] | – | – | – | – | 0.53 | 1.25 | 1.25 | 1.25 | 256 | 256 | 256 | 256 |
| NC(N)=Nc1nc(-c2ccc(C(F)(F)F)cc2)cs1 [Compound I-43] | – | – | – | – | 0.5 | 0.63 | 1.25 | 1.25 | 256 | 256 | 256 | 256 |
| NC(N)=Nc1nc(-c2cccc(C(F)(F)F)c2)c[nH]1 [Compound I-42] | – | – | – | – | 0.53 | 1.25 | 1.25 | 1.25 | 256 | 256 | 256 | 256 |
| CC(C)(C)c1cccc(-c2c[se]c(N=C(N)N)n2)c1 [Compound I-11] | – | – | – | – | 0.5 | 0.63 | 0.25 | 0.3 | 256 | 256 | 256 | 256 |
| CCc1sc(N=C2NCCCN2)nc1-c1cc(C)c(F)c(C)c1 [Compound I-172] | – | – | – | – | 0.63 | 1.25 | 0.52 | 0.52 | 128 | 64 | 128 | 256 |
| CC(C)(C)c1cc(-c2csc(NC3=NCCCN3)n2)cc(C(C)(C)C)c1O [Compound I-163] | 128 (≈ 331 µM) | 64 (≈ 166 µM) | 128 (≈ 331 µM) | 256 (≈ 662 µM) | 0.04 | 0.04 | 0.19 | 0.38 | – | – | – | – |
| CSc1cc2cc(C)ccn2c1-c1csc(N=C(N)N)n1 [Compound I-125] | – | – | – | – | 0.18 | 0.28 | 0.16 | 0.03 | 256 | 256 | 256 | 256 |
| CC(C)(C)c1ccccc1-c1coc(N=C(N)N)n1 [Compound I-10] | – | – | – | – | 0.5 | 1.25 | 1.25 | 1.25 | 256 | 256 | 256 | 256 |
| Oc1c(I)cc(-c2nc(N=C3NCCCN3)sc2Cl)cc1I [Compound I-183] | – | – | – | – | 1.25 | 0.52 | 1.25 | 0.25 | 256 | 256 | 256 | 256 |
| NC(N)=Nc1nc(-c2c(I)cc(I)cc2I)cs1 [Compound I-54] | – | – | – | – | 0.39 | 0.62 | 0.33 | 0.15 | 256 | 256 | 256 | 256 |

From patent publication US20260250257A1, “ANTIBACTERIAL AND SYNERGISTIC ACTIVE COMPOUND AND USE THEREOF” (EAST CHINA UNIVERSITY OF SCIENCE AND TECHNOLOGY, priority 2023, published 2026)
